This is an account of results in paper PMC9157009, “Protein proximity networks and functional evaluation of the casein kinase 1 gamma family reveal unique roles for CK1γ3 in WNT signaling” (The Journal of Biological Chemistry, 2022).

Several values for one entry are separate records, joined by “and”; a condition that tells them apart may be missing. Equal values may be shown once.

One assay addresses T1, CAMK1B (Homo sapiens, UniProt Q6P2M8).
T1 construct: purchased Eurofins DiscoverX Corporation
The assay is described as follows: scanMAX binding assay, CAMK1B. Conditions: Percent of Control; legend and method: 1 μM; read-out: CAMK1B PoC @ 1 µM. An excerpt:
(§1) As described previously, this commercial assay platform screens against 403 WT human kinases in binding assays and provides PoC values ([73]).

Another assay addresses T2, CDK7 (Homo sapiens, UniProt P50613).
T2 construct: purchased Eurofins DiscoverX Corporation
The experiment in a line: scanMAX binding assay, CDK7. The settings on record: Percent of Control; legend and method: 1 μM; read-out: CDK7 PoC @ 1 µM.
From the text: as §1

The target in another assay is T3, ERK8 (Homo sapiens, UniProt Q8TD08).
T3 construct: purchased Eurofins DiscoverX Corporation
The experiment in a line: scanMAX binding assay, ERK8. Conditions: Percent of Control; legend and method: 1 μM; read-out: ERK8 PoC @ 1 µM.
From the text: as §1

The subject of assay [1] is BAR reporter (β-catenin-dependent WNT signaling). The assay is described as follows: BAR luciferase transcriptional reporter assay in HEK293T B/R cells. Conditions: for activation of the BAR reporter: HEK293T B/R cells, 10 μM compound for 18 h, compared with dimethyl sulfoxide and FP1. It is filed as cell-based, human. The method, then: All luciferase reporter assays were performed as previously described ([15], [43]). […] In both loss-of-function and gain-of-function experiments, treatments (WNT3A CM or drug) were added 18 h before harvesting cells. Conditions were plated in triplicate, and Renilla normalized values were averaged across triplicates to yield the data presented and standard error. Each assay was repeated in biological triplicate, unless otherwise stated. Firefly luciferase and the Renilla control were detected using the Promega Dual-Luciferase Reporter Assay System per the manufacturer’s protocol (Promega; catalog no.: E1960). Plates were read on the Victor Nivo plate reader (PerkinElmer).

Another assay deals with T4, DCAMKL3 (Homo sapiens, UniProt Q9C098).
T4 construct: purchased Eurofins DiscoverX Corporation
T4 sequence (Q9C098 whole entry): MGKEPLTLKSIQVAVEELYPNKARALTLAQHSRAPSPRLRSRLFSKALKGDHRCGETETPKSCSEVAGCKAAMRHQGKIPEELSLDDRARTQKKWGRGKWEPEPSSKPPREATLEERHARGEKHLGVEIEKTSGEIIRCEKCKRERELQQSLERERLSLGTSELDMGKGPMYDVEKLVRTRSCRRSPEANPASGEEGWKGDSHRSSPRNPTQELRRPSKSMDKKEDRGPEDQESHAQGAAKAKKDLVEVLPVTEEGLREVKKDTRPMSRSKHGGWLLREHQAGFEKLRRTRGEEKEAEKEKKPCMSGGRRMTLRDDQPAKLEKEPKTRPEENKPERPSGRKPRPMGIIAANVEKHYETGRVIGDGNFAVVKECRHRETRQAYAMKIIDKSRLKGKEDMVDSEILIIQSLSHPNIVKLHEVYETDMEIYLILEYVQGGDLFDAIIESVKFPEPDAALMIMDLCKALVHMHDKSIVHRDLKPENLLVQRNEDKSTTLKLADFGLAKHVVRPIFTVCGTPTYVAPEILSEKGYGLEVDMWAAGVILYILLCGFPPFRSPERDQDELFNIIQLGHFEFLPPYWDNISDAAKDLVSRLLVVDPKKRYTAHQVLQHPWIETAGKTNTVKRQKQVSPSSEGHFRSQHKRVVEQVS
The experiment in a line: scanMAX binding assay, DCAMKL3. Conditions: Percent of Control; legend and method: 1 μM; read-out: DCAMKL3 PoC @ 1 µM.
From the text: as §1

Assay [2] has as its target T5, CK1γ3 (Homo sapiens, UniProt Q9Y6M4).
T5 construct: purchased Eurofins
The assay is described as follows: Eurofins kinase enzymatic radiometric assay, CK1γ3. It is filed as biochemical. Conditions: Km = ATP, 9-pt curve in duplicate. An excerpt: (§2) Details related to the substrate used, protein constructs, controls, and assay protocol for each kinase assay are included on the Eurofins website: https://www.eurofinsdiscoveryservices.com/.

For a further assay, the target named is T6, CK1γ2 (Homo sapiens, UniProt P78368).
T6 construct: purchased Eurofins
T6 sequence (P78368 whole entry): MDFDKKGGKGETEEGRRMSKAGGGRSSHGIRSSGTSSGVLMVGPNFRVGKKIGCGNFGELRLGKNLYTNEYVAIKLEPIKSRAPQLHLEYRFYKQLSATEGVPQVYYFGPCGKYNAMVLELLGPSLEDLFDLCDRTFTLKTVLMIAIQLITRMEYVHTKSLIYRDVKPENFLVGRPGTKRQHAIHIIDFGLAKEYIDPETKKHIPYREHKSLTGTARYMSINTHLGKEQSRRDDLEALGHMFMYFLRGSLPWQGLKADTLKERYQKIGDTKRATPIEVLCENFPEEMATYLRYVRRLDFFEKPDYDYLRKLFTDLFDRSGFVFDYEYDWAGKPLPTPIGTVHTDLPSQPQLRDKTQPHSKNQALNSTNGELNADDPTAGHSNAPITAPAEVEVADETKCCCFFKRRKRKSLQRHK
The assay is described as follows: scanMAX binding assay, CK1γ2. The settings on record: Percent of Control; legend and method: 1 μM; read-out: CK1γ2 PoC @ 1 µM.
From the text: as §1

The target of the next assay is T7, ICK (Homo sapiens, UniProt Q9UPZ9).
T7 construct: purchased Eurofins DiscoverX Corporation
The assay is described as follows: scanMAX binding assay, ICK. The settings on record: Percent of Control; legend and method: 1 μM; read-out: ICK PoC @ 1 µM.
From the text: as §1

The target in another assay is T8, DYRK2 (Homo sapiens, UniProt Q92630).
T8 construct: purchased Eurofins DiscoverX Corporation
The assay is described as follows: scanMAX binding assay, DYRK2. The settings on record: Percent of Control; legend and method: 1 μM; read-out: DYRK2 PoC @ 1 µM.
From the text: as §1

Another assay deals with T9, DYRK1B (Homo sapiens, UniProt Q9Y463).
T9 construct: purchased Eurofins DiscoverX Corporation
T9 sequence (Q9Y463 whole entry): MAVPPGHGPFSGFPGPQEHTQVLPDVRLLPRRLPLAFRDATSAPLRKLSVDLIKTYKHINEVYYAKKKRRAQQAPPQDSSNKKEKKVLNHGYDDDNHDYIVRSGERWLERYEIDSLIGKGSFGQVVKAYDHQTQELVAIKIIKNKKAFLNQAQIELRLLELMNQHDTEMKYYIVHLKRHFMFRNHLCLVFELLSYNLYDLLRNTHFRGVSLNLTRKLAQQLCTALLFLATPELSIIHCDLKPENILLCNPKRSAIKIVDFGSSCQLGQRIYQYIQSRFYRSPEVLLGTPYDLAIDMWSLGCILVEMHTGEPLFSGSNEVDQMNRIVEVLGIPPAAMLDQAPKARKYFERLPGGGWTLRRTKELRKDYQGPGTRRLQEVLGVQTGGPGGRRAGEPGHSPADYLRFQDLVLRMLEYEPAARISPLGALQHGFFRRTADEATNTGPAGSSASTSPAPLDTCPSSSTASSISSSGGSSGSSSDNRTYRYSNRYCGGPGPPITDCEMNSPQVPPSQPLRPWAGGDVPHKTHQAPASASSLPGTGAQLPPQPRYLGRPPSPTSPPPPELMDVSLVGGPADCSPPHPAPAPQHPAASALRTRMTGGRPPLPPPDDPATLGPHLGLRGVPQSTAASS
The assay is described as follows: scanMAX binding assay, DYRK1B. The settings on record: Percent of Control; legend and method: 1 μM; read-out: DYRK1B PoC @ 1 µM.
From the text: as §1

A further assay deals with T10, PFTK1 (Homo sapiens, UniProt O94921).
T10 construct: purchased Eurofins DiscoverX Corporation
The assay is described as follows: scanMAX binding assay, PFTK1. The settings on record: Percent of Control; legend and method: 1 μM; read-out: PFTK1 PoC @ 1 µM.
From the text: as §1

Another assay deals with T11, CDKL5 (Homo sapiens, UniProt O76039).
T11 construct: purchased Eurofins DiscoverX Corporation
The assay is described as follows: scanMAX binding assay, CDKL5. Conditions: Percent of Control; legend and method: 1 μM; read-out: CDKL5 PoC @ 1 µM.
From the text: as §1

The next assay concerns the target T12, GSK3α (Homo sapiens, UniProt P49840).
T12 construct: purchased Eurofins DiscoverX Corporation
The experiment in a line: scanMAX binding assay, GSK3α. The settings on record: Percent of Control; legend and method: 1 μM; read-out: GSK3α PoC @ 1 µM.
From the text: as §1

Assay [3] concerns the target T13, CK1γ1 (Homo sapiens, UniProt Q9HCP0).
T13 construct: purchased Eurofins
The experiment in a line: Eurofins kinase enzymatic radiometric assay, CK1γ1. It is filed as biochemical. The settings on record: Km = ATP, 9-pt curve in duplicate.
From the text: as §2

Assay [4] has as its target T13, CK1γ1. The experiment in a line: scanMAX binding assay, CK1γ1. The settings on record: Percent of Control; legend and method: 1 μM; read-out: CK1γ1 PoC @ 1 µM.
From the text: as §1

For another assay, the target named is T14, PCTK2 (Homo sapiens, UniProt Q00537).
T14 construct: purchased Eurofins DiscoverX Corporation
T14 sequence (Q00537 whole entry): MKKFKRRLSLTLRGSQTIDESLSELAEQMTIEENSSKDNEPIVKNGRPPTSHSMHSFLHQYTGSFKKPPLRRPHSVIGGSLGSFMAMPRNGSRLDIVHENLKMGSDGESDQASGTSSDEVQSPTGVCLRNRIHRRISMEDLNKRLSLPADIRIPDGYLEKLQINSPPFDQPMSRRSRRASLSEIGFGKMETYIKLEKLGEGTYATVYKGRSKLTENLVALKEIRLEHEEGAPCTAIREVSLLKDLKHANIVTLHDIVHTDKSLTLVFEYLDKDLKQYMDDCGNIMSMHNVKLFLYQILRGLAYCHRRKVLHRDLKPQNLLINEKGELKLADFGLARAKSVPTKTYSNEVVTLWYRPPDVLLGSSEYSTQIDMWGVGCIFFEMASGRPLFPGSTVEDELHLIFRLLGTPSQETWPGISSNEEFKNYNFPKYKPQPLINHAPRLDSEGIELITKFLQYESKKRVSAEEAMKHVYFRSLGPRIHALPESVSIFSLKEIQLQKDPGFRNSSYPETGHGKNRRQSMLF
The assay is described as follows: scanMAX binding assay, PCTK2. The settings on record: Percent of Control; legend and method: 1 μM; read-out: PCTK2 PoC @ 1 µM.
From the text: as §1

Assay [5] deals with T5, CK1γ3. The assay is described as follows: scanMAX binding assay, CK1γ3. Conditions: Percent of Control; legend and method: 1 μM; read-out: CK1γ3 PoC @ 1 µM.
From the text: as §1

In the next assay the target is T15, PCTK3 (Homo sapiens, UniProt Q07002).
T15 construct: purchased Eurofins DiscoverX Corporation
The assay is described as follows: scanMAX binding assay, PCTK3. The settings on record: Percent of Control; legend and method: 1 μM; read-out: PCTK3 PoC @ 1 µM.
From the text: as §1

Another assay concerns the target T16, GSK3β (Homo sapiens, UniProt P49841).
T16 construct: purchased Eurofins DiscoverX Corporation
The experiment in a line: scanMAX binding assay, GSK3β. Conditions: Percent of Control; legend and method: 1 μM; read-out: GSK3β PoC @ 1 µM.
From the text: as §1

The next assay concerns the target T17, PCTK1 (Homo sapiens, UniProt Q00536).
T17 construct: purchased Eurofins DiscoverX Corporation
The assay is described as follows: scanMAX binding assay, PCTK1. Conditions: Percent of Control; legend and method: 1 μM; read-out: PCTK1 PoC @ 1 µM.
From the text: as §1

Assay [6] concerns β-catenin-dependent transcription. Conditions: siRNA screen, BAR firefly luciferase reporter, ref Biechele et al, cited from earlier work; for Average BAR firefly Luciferase (Raw): raw signal per siRNA target.
Another assay addresses T18, GSK3β (NLuc-GSK3β) (Homo sapiens, UniProt P49841).
T18 construct: host or cells: HEK293T
The experiment in a line: NanoBRET cellular target engagement assay, NLuc-GSK3β in HEK293T cells. The class given is cell-based. Conditions: live HEK293T cells, 0.063 μM tracer K-8; read-out: NL-GSK3β NanoBRET IC50. The method, then: (§3) HEK293T cells (hypotriploid, fetal) were purchased from ATCC. These cells were grown in Dulbecco’s modified Eagle’s medium (Gibco) supplemented with 10% (v/v) fetal bovine serum (Corning). They were incubated in 5% CO2 at 37 °C and passaged every 72 h with trypsin and not allowed to reach confluency. Constructs for NanoBRET measurements of CK1γ2 (NLuc-CK1γ2) and GSK3β (NLuc-GSK3β) were kindly provided by Promega. NanoBRET assays were carried out as described previously ([74]). Preferred NLuc orientations, both N-terminal in this case, are indicated in parentheses after each construct. Assays were carried out in dose–response as described by the manufacturer using 0.5 μM of tracer K-10 for CK1γ2 and 0.063 μM of tracer K-8 for GSK3β. Two biological replicates were executed with two technical replicates to produce the graphs with error bars shown in Figures 6E, 7E, 8, A and B. Tracer titration curves for these kinases that motivated our tracer selection and working concentration can be found on the Promega website.

The next assay has as its target T19, CK1γ2 (NLuc-CK1γ2) (Homo sapiens, UniProt P78368).
T19 construct: host or cells: HEK293T
The assay is described as follows: NanoBRET cellular target engagement assay, NLuc-CK1γ2 in HEK293T cells. The class given is cell-based. Conditions: live HEK293T cells, 0.5 μM tracer K-10. The protocol: as §3

T13 sequence (Q9HCP0 whole entry): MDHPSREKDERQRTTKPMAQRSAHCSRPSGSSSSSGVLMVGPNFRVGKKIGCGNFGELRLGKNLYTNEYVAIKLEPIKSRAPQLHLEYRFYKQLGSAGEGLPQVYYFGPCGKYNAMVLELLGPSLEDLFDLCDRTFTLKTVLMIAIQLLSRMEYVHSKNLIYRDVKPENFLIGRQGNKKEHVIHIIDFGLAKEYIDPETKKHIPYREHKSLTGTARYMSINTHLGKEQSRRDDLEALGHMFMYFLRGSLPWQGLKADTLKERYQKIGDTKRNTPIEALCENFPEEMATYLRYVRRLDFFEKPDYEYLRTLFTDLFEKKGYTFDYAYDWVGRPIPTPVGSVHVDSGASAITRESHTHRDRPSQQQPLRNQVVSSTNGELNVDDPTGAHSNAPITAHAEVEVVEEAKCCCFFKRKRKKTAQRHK
T5 sequence (Q9Y6M4 whole entry): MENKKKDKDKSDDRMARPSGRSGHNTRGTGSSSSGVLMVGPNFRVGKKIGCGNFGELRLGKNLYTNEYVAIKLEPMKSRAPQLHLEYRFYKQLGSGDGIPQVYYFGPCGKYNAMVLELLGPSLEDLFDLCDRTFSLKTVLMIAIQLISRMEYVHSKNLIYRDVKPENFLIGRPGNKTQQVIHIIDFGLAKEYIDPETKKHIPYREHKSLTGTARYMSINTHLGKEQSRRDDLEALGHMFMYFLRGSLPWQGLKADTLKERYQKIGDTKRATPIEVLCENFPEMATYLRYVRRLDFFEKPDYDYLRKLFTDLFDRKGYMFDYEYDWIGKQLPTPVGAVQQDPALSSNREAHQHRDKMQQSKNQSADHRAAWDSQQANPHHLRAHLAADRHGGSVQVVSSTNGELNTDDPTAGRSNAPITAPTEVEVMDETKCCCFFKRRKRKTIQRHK
T1 sequence (Q6P2M8 whole entry): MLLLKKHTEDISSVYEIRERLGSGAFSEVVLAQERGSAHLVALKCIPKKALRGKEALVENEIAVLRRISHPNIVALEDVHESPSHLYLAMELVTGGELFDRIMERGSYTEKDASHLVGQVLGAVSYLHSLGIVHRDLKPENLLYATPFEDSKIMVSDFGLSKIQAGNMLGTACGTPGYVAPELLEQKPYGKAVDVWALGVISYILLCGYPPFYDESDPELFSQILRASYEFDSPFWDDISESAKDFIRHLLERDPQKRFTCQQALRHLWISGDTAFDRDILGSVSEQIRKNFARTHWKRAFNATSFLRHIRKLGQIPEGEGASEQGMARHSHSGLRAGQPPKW
T18 sequence (P49841 whole entry): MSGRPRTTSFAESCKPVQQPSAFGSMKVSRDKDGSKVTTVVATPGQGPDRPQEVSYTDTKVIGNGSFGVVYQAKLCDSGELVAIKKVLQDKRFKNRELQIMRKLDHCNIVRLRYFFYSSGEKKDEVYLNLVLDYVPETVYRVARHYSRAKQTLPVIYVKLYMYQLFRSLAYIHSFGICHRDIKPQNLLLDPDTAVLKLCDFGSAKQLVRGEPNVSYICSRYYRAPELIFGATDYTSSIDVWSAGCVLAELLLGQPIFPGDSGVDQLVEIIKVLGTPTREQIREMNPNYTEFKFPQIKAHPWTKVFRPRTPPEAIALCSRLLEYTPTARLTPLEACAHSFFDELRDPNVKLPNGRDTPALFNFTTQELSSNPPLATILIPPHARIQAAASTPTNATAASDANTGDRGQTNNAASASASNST
T16 sequence (P49841 whole entry): as above
T19 sequence (P78368 whole entry): as the sequence (P78368 whole entry) above
T12 sequence (P49840 whole entry): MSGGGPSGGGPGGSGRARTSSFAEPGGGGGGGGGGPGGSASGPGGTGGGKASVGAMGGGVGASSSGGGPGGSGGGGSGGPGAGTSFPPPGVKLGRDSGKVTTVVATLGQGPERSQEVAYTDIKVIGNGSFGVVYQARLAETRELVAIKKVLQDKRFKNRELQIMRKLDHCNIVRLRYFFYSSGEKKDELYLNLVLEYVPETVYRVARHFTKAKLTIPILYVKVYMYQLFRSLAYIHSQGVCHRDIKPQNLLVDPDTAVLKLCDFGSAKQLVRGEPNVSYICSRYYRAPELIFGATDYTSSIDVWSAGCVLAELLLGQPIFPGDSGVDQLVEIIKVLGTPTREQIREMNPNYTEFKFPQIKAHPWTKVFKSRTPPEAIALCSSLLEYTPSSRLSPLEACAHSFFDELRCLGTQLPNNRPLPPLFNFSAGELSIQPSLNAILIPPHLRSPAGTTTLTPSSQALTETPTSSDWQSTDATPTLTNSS

For the molecule `CN(C)CC(=O)Nc1n[nH]c2ccc(-c3cn(Cc4ccccc4)nn3)cc12` [AKI00000062a], the remaining binding at 1 µM on CAMK1B came out at 0%; at CDK7, 1.2%; at ERK8, 2.5%; on DCAMKL3, 1.9%; on CK1γ2, 1%; on ICK, 1.6%. The remaining binding at 1 µM at DYRK2 worked out at 7.2%; on DYRK1B, 6%; on PFTK1, 3.5%; at CDKL5 it was 0.2%; on GSK3α, 0.9%; at CK1γ1 [4] it was 5.2%. The remaining binding at 1 µM at PCTK2 amounted to 1.4%; on CK1γ3 [5], 3.3%; at PCTK3, 1.2%; at GSK3β, 0.4%; on PCTK1, 0.2%. Moreover, in assay [1], the “activation of the BAR reporter” value is on record as “robustly activated”. Moreover, the IC50 was ≤ 275 nM and 168 nM against CK1γ3 [2]; ≤ 275 nM and 275 nM on CK1γ1 [3].
As for `Cc1cc(-c2ccc(CC(=O)Nc3ccc(-c4cccnc4)cc3)cc2)ccn1` [C59, reference compound], the “BAR activation by CK1γ3 overexpression in the absence of WNT3A CM” value in [1] (HEK293T B/R cells transfected 14 h, 10 μM C59 for 18 h) is “blocked this activation”.
ERBB2: in assay [6], the “Fold over control siRNA” value was 3.138 and the “Average BAR firefly Luciferase (Raw)” value is 83000.
On to EPHA2, for which, in [6], the “Fold over control siRNA” value is listed as 0.4994 and the “Average BAR firefly Luciferase (Raw)” value was 13210.
On to `Cc1c[nH]c(-c2cnc(NCCNc3ccc(C#N)cn3)nc2-c2ccc(Cl)cc2Cl)n1` [CHIR99021, reference compound], for which the “activation of the BAR reporter” value in assay [1] is reported as “robustly activated”.
Turning to `Cc1cc(Nc2cc(C3CC3)[nH]n2)nc(Nc2ccc(CC#N)cc2)n1` [APY69, reference compound], the IC50 at GSK3β (NLuc-GSK3β) came out at 0.23 nM. Also, the “NL-CK1γ2 NanoBRET IC50” value on CK1γ2 (NLuc-CK1γ2) was “inactive”.
